Patent US9468661B2, “Pyrrolidine derivatives and their use as complement pathway modulators” (priority 2012, dated 2016)

biological target: human factor D (Homo sapiens (Human), UniProt P00746); experiment: biochemical; type: biochemical; conditions: Factor D inhibition data using Method 1; recombinant human factor D 10 nM, substrate Z-Lys-thiobenzyl, fluorescence; read-out: IC50
How it was run: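 E. coli-expressed recombinant human factor D (10 nM) was preincubated with compound for 1 h at room temperature in 0.1 M Hepes pH 7.5, 1 mM MgCl2, 1 M NaCl, 0.05% CHAPS. Fluorescence (ex 485/em 535 nm) was read after adding Z-Lys-thiobenzyl (200 μM) and 2,4-dinitrobenzenesulfonyl-fluoresceine (25 μM); IC50 came from percent inhibition versus concentration.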

human factor D, sequence (P00746 26-253): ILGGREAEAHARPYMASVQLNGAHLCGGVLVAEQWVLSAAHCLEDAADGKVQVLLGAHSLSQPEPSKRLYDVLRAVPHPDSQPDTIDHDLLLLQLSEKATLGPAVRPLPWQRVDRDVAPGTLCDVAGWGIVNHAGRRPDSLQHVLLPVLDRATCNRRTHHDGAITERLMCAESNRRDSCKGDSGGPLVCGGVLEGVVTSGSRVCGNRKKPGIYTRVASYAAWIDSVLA

| SMILES | IC50 [nM] |
| --- | --- |
| NC(=O)c1nn(CC(=O)N2[C@@H]3C[C@@H]3C[C@H]2C(=O)NCC2CC2(F)F)c2ccccc12 (stereo partly drawn) [Example 67, 1-(2-{(1R,3S,5R)-3-[(2,2-Difluoro-cyclopropylmethyl)-carbamoyl]-2-aza-bicyclo[3.1.0]hex-2-yl}-2-oxo-ethyl)-1H-indazole-3-carboxylic acid amide] | 428 |
| NC(=O)n1cc(NC(=O)N2[C@@H]3C[C@@H]3C[C@H]2C(=O)NCC2CCCCC2)c2ccccc21 [Example 25, (1R,3S,5R)-2-Aza-bicyclo[3.1.0]hexane-2,3-dicarboxylic acid 2-[(1-carbamoyl-1H-indol-3-yl)-amide]3-cyclohexylmethyl-amide] | 257 |
| NC(=O)c1nn(CC(=O)N2[C@@H]3C[C@@H]3C[C@H]2C(=O)NC[C@H]2CC2(Cl)Cl)c2ccncc12 [Example 95, 1-(2-{(1R,3S,5R)-3-[((R)-2,2-Dichlorocyclopropylmethyl)-carbamoyl]-2-aza-bicyclo[3.1.0]hex-2-yl}-2-oxo-ethyl)-1H-pyrazolo[4,3-c]pyridine-3-carboxylic acid amide] | 482 |
| Cc1cc2c(C(N)=O)nn(CC(=O)N3[C@@H]4C[C@@H]4C[C@H]3C(=O)N[C@H](C)[C@H]3CC3(Cl)Cl)c2c(C)n1 [Example 45, 1-(2-{(1R,3S,5R)-3-[(R)-1-((R)-2,2-Dichloro-cyclopropyl)-ethylcarbamoyl]-2-aza-bicycio[3.1.0]hex-2-yl}-2-oxo-ethyl)-5,7-dimethyl-1H-pyrazolo[3,4-c]pyridine-3-carboxylic acid amide] | 43 |
| C[C@@H](NC(=O)[C@@H]1C[C@@H](F)CN1C(=O)Cn1nc(C(N)=O)c2ccccc21)[C@H]1CC1(Cl)Cl [Example 58, 1-(2-{(2S,4R)-2-[(R)-1-((R)-2,2-Dichloro-cyclopropyl)-ethylcarbamoyl]-4-fluoro-pyrrolidin-1-yl}-2-oxo-ethyl)-1H-indazole-3-carboxylic acid amide] | 39 |
| Cc1ccc2c(C(N)=O)nn(CC(=O)N3[C@@H]4C[C@@H]4C[C@H]3C(=O)NC[C@H]3CC3(Cl)Cl)c2c1 [Example 113, 1-(2-{(1R,3S,5R)-3-[((R)-2,2-Dichloro-cyclopropylmethyl)-carbamoyl]-2-aza-bicyclo[3.1.0]hex-2-yl}-2-oxo-ethyl)-6-methyl-1H-indazole-3-carboxylic acid amide] | 74 |
| CC1CCCC1CNC(=O)[C@@H]1C[C@H]2C[C@H]2N1C(=O)Cn1nc(C(N)=O)c2ccncc21 (single isomer, unassigned; dia 4) [Example 88] | 781 |
| CC(=O)c1nn(CC(=O)N2[C@@H]3C[C@@H]3C[C@H]2C(=O)NC[C@@H]2C(C)(C)C2(Cl)Cl)c2ccc(OCc3ncccn3)cc12 [Example 103, (1R,3S,5R)-2-{2-[3-Acetyl-5-(pyrimidin-2-ylmethoxy)-indazol-1-yl]-acetyl}-2-aza-bicyclo[3.1.0] hexane-3-carboxylic acid ((S)-2,2-dichloro-3,3-dimethyl-cyclopropylmethyl)-amide] | 70 |
| CC(=O)c1nn(CC(=O)N2[C@@H]3C[C@@H]3C[C@H]2C(=O)NCC2CCC3(CCC3)CC2)c2cnccc12 [Example 3, (1R,3S,5R)-2-[2-(3-Acetyl-pyrazolo[3,4-c]pyridin-1-yl)-acetyl]-2-aza-bicyclo[3.1.0] hexane-3-carboxylic acid (spiro[3.5]non-7-ylmethyl)-amide] | 1350 |

same assay, conditions: IC50, Factor D inhibition data using Method 1; recombinant human factor D 10 nM, substrate Z-Lys-thiobenzyl, fluorescence

| SMILES | IC50 [nM] |
| --- | --- |
| [2H]C([2H])([2H])[C@@H](NC(=O)[C@@H]1C[C@H]2C[C@H]2N1C(=O)Cn1nc(C(N)=O)c2ccccc21)[C@H]1CC1(Cl)Cl [Example 121, 1-(2-{(1R,3S,5R)-3-[(R)-1-((R)-2,2-Dichloro-cyclopropyl)-ethyl-2,2,2-D3-carbamoyl]-2-aza-bicyclo[3.1.0]hex-2-yl}-2-oxo-ethyl)-1H-indazole-3-carboxylic acid amide] | 14 |
| CC(=O)c1nn(CC(=O)N2[C@@H]3C[C@@H]3C[C@H]2C(=O)N[C@H](C)[C@H]2CC2(Cl)Cl)c2ccc(OCc3ncccn3)cc12 [Example 32, (1R,3S,5R)-2-{2-[3-Acetyl-5-(pyrimidin-2-ylmethoxy)-indazol-1-yl]-acetyl}-2-aza-bicyclo[3.1.0]hexane-3-carboxylic acid [(R)-1-((R)-2,2-dichloro-cyclopropyl)-ethyl]-amide-Dia 1] | 6 |
| CC1C(CNC(=O)[C@@H]2C[C@H]3C[C@H]3N2C(=O)Cn2nc(C(N)=O)c3ccncc32)C1(Cl)Cl (single isomer, unassigned; dia 2) [Example 80, 1-(2-{(1R,3S,5R)-3-[((1R,3S) or (1S,3R)-2,2-Dichloro-3-methyl-cyclopropylmethyl)-carbamoyl]-2-aza-bicyclo[3.1.0]hex-2-yl}-2-oxo-ethyl)-1H-pyrazolo[3,4-c]pyridine-3-carboxylic acid amide-Dia 2] | 98 |
| CC1CCC(CNC(=O)[C@@H]2C[C@H]3C[C@H]3N2C(=O)Cn2nc(C(N)=O)c3ccccc32)C1 (single isomer, unassigned; dia 2) [Example 90] | 53 |
